The values that follow come from patent US12667584B2, “Adenosine analog and its use in regulating the circadian clock” (NATIONAL INSTITUTE OF BIOLOGICAL SCIENCES, BEIJING, priority 2017, dated 2026).

Read-outs that look alike come from different tables or passages of the source.

This assay has as its system Per2-Luc reporter U2OS cells (D15). Description: Circadian phase shift cell assay in D15 cells, 384 well plate, Tecan, with or without pentostatin. Type of assay: cell-based, human. The following applies: for period effect / amplitude effect, Per2:luc signal versus control: under the concentration of 100 μM; for minimal effective concentration: without pentostatin, read-out: Cell Assay; for minimal effective concentration / With Pentostadin Cell Assay: concentration that shifts the circadian phase; for With Pentostadin Cell Assay: pentostatin 5 μg/ml.

Consider `Nc1ncnc2c1c(Br)cn2[C@@H]1O[C@H](CO)[C@H](O)[C@H]1O` [NQZ-168], for which the period effect entry is “elongation period effect”.

As to `Nc1ncnc2c1c(Br)cn2[C@@H]1O[C@H](CO)C[C@H]1O` [NQZ-194], the “amplitude effect, Per2:luc signal versus control” value was “more than two fold of control”.

Turning to `OC[C@H]1O[C@@H](n2c(F)nc3c(F)nc(F)nc32)[C@H](O)[C@H]1O` [NQZ-195], the period effect result is on record as “elongation period effect”.

`[2H]c1nc(N)c2nc([2H])n([C@@H]3O[C@H](CO)[C@H](O)[C@H]3O)c2n1` [NQZ-198]: the “amplitude effect, Per2:luc signal versus control” value was “more than two fold of control”.

Regarding `OC[C@H]1O[C@@H](n2cnc3cc(Cl)c(Cl)cc32)C(O)C1O` (stereo partly shown) [drawing 284], the minimal effective concentration is listed as 10 µM.

Turning to `OC[C@H]1O[C@@H](n2cnc3cc(Cl)c(Cl)cc32)C(O)C1O` (stereo partly shown) [drawing 289], the “With Pentostadin Cell Assay” value was found to be 10 µM. Also, under “Homo sapiens, U2OS”, the minimal effective concentration worked out at 10 µM.

For `Nc1ncnc2c1ncn2[C@@H]1O[C@H](COC(=O)CCCC[C@@H]2SC[C@@H]3NC(=O)N[C@@H]32)CC1O` (stereo partly shown) [drawing 290], the “With Pentostadin Cell Assay” value stood at 6 µM and the minimal effective concentration is given as above 500 µM.

Regarding `O=C(CCCC[C@@H]1SC[C@@H]2NC(=O)N[C@@H]21)Nc1ncnc2c1ncn2[C@@H]1O[C@H](CO)CC1O` (stereo partly shown) [drawing 292], the “With Pentostadin Cell Assay” value came out at 25 µM and the minimal effective concentration was above 500 µM.

Consider `Nc1ncnc2c1ccn2[C@@H]1O[C@H](CO)C(O)C1O` (stereo partly shown) [drawing 303], for which the “With Pentostadin Cell Assay” value is 0.3 µM. Also, for the setting “Homo sapiens, U2OS”, the minimal effective concentration came to 0.3 µM.

Take `O=C(CCCC[C@@H]1SC[C@@H]2NC(=O)N[C@@H]21)Nc1ncnc2c1ncn2[C@@H]1O[C@H](CO)CC1O` (stereo partly shown) [drawing 315]: the minimal effective concentration is on record as 200 µM.

On to `Nc1ncnc2c1ncn2[C@@H]1O[C@H](COC(=O)CCCC[C@@H]2SC[C@@H]3NC(=O)N[C@@H]32)CC1O` (stereo partly shown) [drawing 316], for which the minimal effective concentration stood at 200 µM.

For `Nc1ncnc2c1ccn2[C@@H]1O[C@H](CO)C(O)C1O` (stereo partly shown) [drawing 318], the “With Pentostadin Cell Assay” value was determined as 25 µM.

`Nc1ncnc2c1c(Br)cn2[C@@H]1O[C@H](CO)[C@H](O)[C@H]1O` [drawing 333]: the “With Pentostadin Cell Assay” value was 100 µM. Besides, for the setting “Homo sapiens, U2OS”, the minimal effective concentration is above 500 µM.

In the case of `Nc1ncnc2c1c(Br)cn2[C@@H]1O[C@H](CO)C[C@H]1O` [drawing 349], the “With Pentostadin Cell Assay” value is 100 µM. For the same molecule, the minimal effective concentration (Homo sapiens, U2OS) was above 500 µM.

`[2H]c1nc(N)c2nc([2H])n([C@@H]3O[C@H](CO)[C@H](O)[C@H]3O)c2n1` [drawing 353]: the “With Pentostadin Cell Assay” value stood at 25 µM. The minimal effective concentration (Homo sapiens, U2OS) stood at 12.5 µM.
